Converted amounts (≈) assume the structure as drawn.
Experiment: High-throughput equilibrium solubility at pH 6.8
Type: physicochemical
Conditions: pH 6.8, aqueous buffer, thermodynamic from solid; read-out: HT-Eq Sol/pH 6.8
Summary of the method: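 Following the procedure of Zhou et al. (2007), compound solubility was determined at pH 6.8.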

Row | SMILES | solubility thermodynamic [µg/mL]
1 | CNc1ncc(-c2ccc3ncc4c(c3c2)n(-c2ccc(C)nc2C)c(=O)n4C)cn1 [Example 14.4, 1-(2,6-Dimethyl-pyridin-3-yl)-3-methyl-8-(2-methylamino-pyrimidin-5-yl)-1,3-dihydro-imidazo[4,5-c]quinolin-2-one] | 8 (≈ 19.4 µM)
2 | CNc1ncc(-c2ccc3ncc4c(c3c2)n(-c2ccc(F)nc2C)c(=O)n4C)cc1F [Example 7.12, 8-(5-Fluoro-6-methylamino-pyridin-3-yl)-1-(6-fluoro-2-methyl-pyridin-3-yl)-3-methyl-1,3-dihydro-imidazo[4,5-c]quinolin-2-one] | 3 (≈ 6.94 µM)
3 | CNc1cc(-c2ccc3ncc4c(c3c2)n(-c2ccc(N(C)C)nc2C)c(=O)n4C)cnc1C [Example 19.2, 1-(6-Dimethylamino-2-methyl-pyridin-3-yl)-3-methyl-8-(6-methyl-5-methylamino-pyridin-3-yl)-1,3-dihydro-imidazo[4,5-c]quinolin-2-one] | 34 (≈ 75 µM)
4 | CNc1ncc(-c2ccc3ncc4c(c3c2)n(-c2cnc(F)cc2C)c(=O)n4C)cn1 [Example 16.3, 1-(6-Fluoro-4-methyl-pyridin-3-yl)-3-methyl-8-(2-methylamino-pyrimidin-5-yl)-1,3-dihydro-imidazo[4,5-c]quinolin-2-one] | 27 (≈ 65 µM)
5 | Cc1cc(F)ncc1-n1c(=O)n(C)c2cnc3ccc(-c4cnc5c(ccn5C)c4)cc3c21 [Example 16.5, 1-(6-Fluoro-4-methyl-pyridin-3-yl)-3-methyl-8-(1-methyl-1H-pyrrolo[2,3-b]pyridin-5-yl)-1,3-dihydro-imidazo[4,5-c]quinolin-2-one] | 2 (≈ 4.56 µM)
6 | COc1ccc(-n2c(=O)n(C)c3cnc4ccc(-c5ccc6nccn6c5)cc4c32)c(OC)n1 [Example 8.10, 1-(2,6-Dimethoxy-pyridin-3-yl)-8-imidazo[1,2-a]pyridin-6-yl-3-methyl-1,3-dihydro-imidazo[4,5-c]quinolin-2-one] | 47 (≈ 104 µM)
7 | Cc1ccc(-n2c(=O)n(C)c3cnc4ccc(-c5cnc(N(C)C)nc5)cc4c32)c(C)n1 [Example 14.3, 8-(2-Dimethylamino-pyrimidin-5-yl)-1-(2,6-dimethyl-pyridin-3-yl)-3-methyl-1,3-dihydro-imidazo[4,5-c]quinolin-2-one] | 7 (≈ 16.5 µM)
8 | CCOc1ccc(-c2ccc3ncc4c(c3c2)n(-c2ccc(OCCOC)nc2C)c(=O)n4C)cn1 [Example 13.1, 8-(6-Ethoxy-pyridin-3-yl)-1-[6-(2-methoxy-ethoxy)-2-methyl-pyridin-3-yl]-3-methyl-1,3-dihydro-imidazo[4,5-c]quinolin-2-one] | 3 (≈ 6.18 µM)
9 | CCOCc1cc(-c2ccc3ncc4c(c3c2)n(-c2ccc(F)nc2C)c(=O)n4C)cnc1N [Example 7.15, 8-(6-Amino-5-ethoxymethyl-pyridin-3-yl)-1-(6-fluoro-2-methyl-pyridin-3-yl)-3-methyl-1,3-dihydro-imidazo[4,5-c]quinolin-2-one] | 67.5 (≈ 147 µM)
10 | COCCOc1ccc(-n2c(=O)n(C)c3cnc4ccc(-c5cnc(N)c(C(F)(F)F)c5)cc4c32)c(C)n1 [Example 13.2, 8-(6-Amino-5-trifluoromethyl-pyridin-3-yl)-1-[6-(2-methoxy-ethoxy)-2-methyl-pyridin-3-yl]-3-methyl-1,3-dihydro-imidazo[4,5-c]quinolin-2-one] | 27 (≈ 51.5 µM)
11 | CCNc1cc(-c2ccc3ncc4c(c3c2)n(-c2ccc(C)nc2C)c(=O)n4C)cnc1C [Example 14.6, 1-(2,6-Dimethyl-pyridin-3-yl)-8-(5-ethylamino-6-methyl-pyridin-3-yl)-3-methyl-1,3-dihydro-imidazo[4,5-c]quinolin-2-one] | 175 (≈ 399 µM)
12 | CNc1cc(-c2ccc3ncc4c(c3c2)n(-c2ccc(F)nc2C)c(=O)n4C)cnc1CO [Example 7.11, 1-(6-Fluoro-2-methyl-pyridin-3-yl)-8-(6-hydroxymethyl-5-methylamino-pyridin-3-yl)-3-methyl-1,3-dihydro-imidazo[4,5-c]quinolin-2-one] | 207 (≈ 466 µM)
13 | CCNc1cc(-c2ccc3ncc4c(c3c2)n(-c2ccc(F)nc2C)c(=O)n4C)cnc1CO [Example 7.9, 8-(5-Ethylamino-6-hydroxymethyl-pyridin-3-yl)-1-(6-fluoro-2-methyl-pyridin-3-yl)-3-methyl-1,3-dihydro-imidazo[4,5-c]quinolin-2-one] | 299 (≈ 652 µM)
14 | COc1nc(N2CCNCC2)ccc1-n1c(=O)n(C)c2cnc3ccc(-c4cnc(N(C)C)nc4)cc3c21 [Example 9.4, 8-(2-Dimethylamino-pyrimidin-5-yl)-1-(2-methoxy-6-piperazin-1-yl-pyridin-3-yl)-3-methyl-1,3-dihydro-imidazo[4,5-c]quinolin-2-one] | > 512
15 | CCNc1cc(-c2ccc3ncc4c(c3c2)n(-c2cnc(F)cc2C)c(=O)n4C)cnc1C [Example 16.2, 8-(5-Ethylamino-6-methyl-pyridin-3-yl)-1-(6-fluoro-4-methyl-pyridin-3-yl)-3-methyl-1,3-dihydro-imidazo[4,5-c]quinolin-2-one] | 70 (≈ 158 µM)
16 | CNc1ncc(-c2ccc3ncc4c(c3c2)n(-c2ccc(N(C)CCOC)nc2C)c(=O)n4C)cn1 [Example 15.2, 1-{6-[(2-Methoxy-ethyl)-methyl-amino]-2-methyl-pyridin-3-yl}-3-methyl-8-(2-methylamino-pyrimidin-5-yl)-1,3-dihydro-imidazo[4,5-c]quinolin-2-one] | 81 (≈ 167 µM)
17 | Cc1nc(F)ccc1-n1c(=O)n(C)c2cnc3ccc(-c4cncc(N)c4)cc3c21 [Example 7.16, 8-(5-Amino-pyridin-3-yl)-1-(6-fluoro-2-methyl-pyridin-3-yl)-3-methyl-1,3-dihydro-imidazo[4,5-c]quinolin-2-one] | 187 (≈ 467 µM)
18 | CNc1ccc(-c2ccc3ncc4c(c3c2)n(-c2ccc(OCCOC)nc2C)c(=O)n4C)cn1 [Example 13.3, 1-[6-(2-Methoxy-ethoxy)-2-methyl-pyridin-3-yl]-3-methyl-8-(6-methylamino-pyridin-3-yl)-1,3-dihydro-imidazo[4,5-c]quinolin-2-one] | 10 (≈ 21.3 µM)
19 | CCNc1cc(-c2ccc3ncc4c(c3c2)n(-c2ccc(N(C)CCOC)nc2C)c(=O)n4C)cnc1C [Example 15.6, 8-(5-Ethylamino-6-methyl-pyridin-3-yl)-1-{6-[(2-methoxy-ethyl)-methyl-amino]-2-methyl-pyridin-3-yl}-3-methyl-1,3-dihydro-imidazo[4,5-c]quinolin-2-one] | 140 (≈ 274 µM)
20 | Cc1ccc(-n2c(=O)n(C)c3cnc4ccc(-c5cncc(NC(C)C)c5)cc4c32)c(C)n1 [Example 14.8, 1-(2,6-Dimethyl-pyridin-3-yl)-8-(5-isopropylamino-pyridin-3-yl)-3-methyl-1,3-dihydro-imidazo[4,5-c]quinolin-2-one] | 12 (≈ 27.4 µM)
21 | CCOc1ccc(-c2ccc3ncc4c(c3c2)n(-c2ccc(C)nc2C)c(=O)n4C)cn1 [Example 14.2, 1-(2,6-Dimethyl-pyridin-3-yl)-8-(6-ethoxy-pyridin-3-yl)-3-methyl-1,3-dihydro-imidazo[4,5-c]quinolin-2-one] | 4 (≈ 9.4 µM)
22 | CNC(=O)c1cc(-c2ccc3ncc4c(c3c2)n(-c2ccc(F)nc2C)c(=O)n4C)cnc1N [Example 7.14, 2-Amino-5-[1-(6-fluoro-2-methyl-pyridin-3-yl)-3-methyl-2-oxo-2,3-dihydro-1H-imidazo[4,5-c]quinolin-8-yl]-N-methyl-nicotinamide] | 3 (≈ 6.56 µM)
23 | CCNc1cc(-c2ccc3ncc4c(c3c2)n(-c2ccc(N(C)CC)nc2C)c(=O)n4C)cnc1C [Example 12.2, 8-(5-Ethylamino-6-methyl-pyridin-3-yl)-1-[6-(ethyl-methyl-amino)-2-methyl-pyridin-3-yl]-3-methyl-1,3-dihydro-imidazo[4,5-c]quinolin-2-one] | 5 (≈ 10.4 µM)
24 | CNc1ccc(-c2ccc3ncc4c(c3c2)n(-c2cnc(F)cc2C)c(=O)n4C)cn1 [Example 16.4, 1-(6-Fluoro-4-methyl-pyridin-3-yl)-3-methyl-8-(6-methylamino-pyridin-3-yl)-1,3-dihydro-imidazo[4,5-c]quinolin-2-one] | 55 (≈ 133 µM)
25 | COCc1ncc(-c2ccc3ncc4c(c3c2)n(-c2ccc(OC)nc2OC)c(=O)n4C)cc1OC [Example 8.12, 1-(2,6-Dimethoxy-pyridin-3-yl)-8-(5-methoxy-6-methoxymethyl-pyridin-3-yl)-3-methyl-1,3-dihydro-imidazo[4,5-c]quinolin-2-one] | 13 (≈ 26.7 µM)
26 | COc1ncccc1-n1c(=O)n(C)c2cnc3ccc(-c4cnc(N(C)C)nc4)cc3c21 [Example 1.9, 8-(2-Dimethylamino-pyrimidin-5-yl)-1-(2-methoxy-pyridin-3-yl)-3-methyl-1,3-dihydro-imidazo[4,5-c]quinolin-2-one] | 3 (≈ 7.02 µM)
27 | CNc1ncc(-c2ccc3ncc4c(c3c2)n(-c2ccc(OCCOC)nc2C)c(=O)n4C)cn1 [Example 13.5, 1-[6-(2-Methoxy-ethoxy)-2-methyl-pyridin-3-yl]-3-methyl-8-(2-methylamino-pyrimidin-5-yl)-1,3-dihydro-imidazo[4,5-c]quinolin-2-one] | 15 (≈ 31.8 µM)
28 | CCNc1cc(-c2ccc3ncc4c(c3c2)n(-c2ccc(OC)nc2C)c(=O)n4C)cnc1C [Example 11.7, 8-(5-Ethylamino-6-methyl-pyridin-3-yl)-1-(6-methoxy-2-methyl-pyridin-3-yl)-3-methyl-1,3-dihydro-imidazo[4,5-c]quinolin-2-one] | 3 (≈ 6.6 µM)
29 | CCOc1ccc(-c2ccc3ncc4c(c3c2)n(-c2ccc(N(C)C)nc2C)c(=O)n4C)cn1 [Example 19.3, 1-(6-Dimethylamino-2-methyl-pyridin-3-yl)-8-(6-ethoxy-pyridin-3-yl)-3-methyl-1,3-dihydro-imidazo[4,5-c]quinolin-2-one] | 5 (≈ 11 µM)
30 | COc1ncccc1-n1c(=O)n(C)c2cnc3ccc(-c4cnc5c(ccn5C)c4)cc3c21 [Example 1.7, 1-(2-Methoxy-pyridin-3-yl)-3-methyl-8-(1-methyl-1H-pyrrolo[2,3-b]pyridin-5-yl)-1,3-dihydro-imidazo[4,5-c]quinolin-2-one] | 3 (≈ 6.87 µM)
